Test results published in patent publication US20240099996A1, “METHODS FOR TREATING CANCER” (Radius Pharmaceuticals, Inc., priority 2015, published 2024).
Counter-ions that a name gives are not always drawn.

Target: T1, ER (Homo sapiens, UniProt P03372)
T1 sequence (P03372 1-595): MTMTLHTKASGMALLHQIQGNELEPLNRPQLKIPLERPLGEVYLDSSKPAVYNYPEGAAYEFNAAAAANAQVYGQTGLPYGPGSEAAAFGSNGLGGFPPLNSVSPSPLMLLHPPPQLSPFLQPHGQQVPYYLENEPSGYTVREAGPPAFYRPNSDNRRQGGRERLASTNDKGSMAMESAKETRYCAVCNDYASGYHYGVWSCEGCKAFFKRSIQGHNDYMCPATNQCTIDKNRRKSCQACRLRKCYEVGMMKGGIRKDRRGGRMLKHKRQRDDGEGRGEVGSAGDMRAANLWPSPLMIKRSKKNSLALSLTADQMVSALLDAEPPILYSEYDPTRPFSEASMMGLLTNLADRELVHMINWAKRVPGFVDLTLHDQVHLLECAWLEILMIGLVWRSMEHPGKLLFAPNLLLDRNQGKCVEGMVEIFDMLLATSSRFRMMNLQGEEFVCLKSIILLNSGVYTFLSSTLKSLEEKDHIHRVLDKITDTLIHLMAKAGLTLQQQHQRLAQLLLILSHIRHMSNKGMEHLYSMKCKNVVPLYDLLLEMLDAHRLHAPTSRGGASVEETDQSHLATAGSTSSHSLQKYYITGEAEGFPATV
Test: ER expression and ER target genes in MCF-7 cell line
Format: cell-based
Conditions: 0.01, 0.1, 1 μM
Protocol: MCF-7 cells (human mammary metastatic adenocarcinoma) were purchased from American Type Culture Collection (Rockville, MD) and were routinely maintained in phenol red-free minimal essential medium (MEM) containing 2 mM L-glutamine and Earle's BSS, 0.1 mM non-essential amino acids and 1 mM sodium pyruvate supplemented with 0.01 mg/ml bovine insulin and 10% fetal bovine serum (Invitrogen, Carlsbad, CA), at 5% CO2.
Cells were harvested and protein expression was analyzed using standard practice. Tumors were harvested at the indicated time points after the last day of dosing, homogenized in RIPA buffer with protease and phosphatase inhibitors using a Tissuelyser (Qiagen). Equal amounts of protein were separated by MW, transferred to nitrocellulose membranes and blotted with the following antibodies using standard practice: • Estrogen receptor (SantaCruz (HC-20); sc-543) • Progesterone receptor (Cell Signaling Technologies; 3153) • Vinculin (Sigma-Aldrich, v9131)
qPCR analyses were performed as follows: Cells were harvested, mRNA was extracted, and equal amounts used for cDNA synthesis and qPCR with primers specific for progesterone receptor, GREB1, and TFF1 (LifeTech). Bands were quantified using 1D Quant software (GE).
Three ER target genes, progesterone receptor (PgR), growth regulation by estrogen in breast cancer 1 (GREB1) and trefoil factor 1 (TFF1), were used as markers.

## CCNCCc1ccc(CN(CC)c2cc(OC)ccc2[C@@H]2CCc3cc(O)ccc3C2)cc1 [RAD1901, (6R)-6-(2-(N-(4-(2-(ethylamino)ethyl)benzyl)-N-ethylamino)-4-methoxyphenyl)-5,6,7,8-tetrahydronaphthalen-2-ol dihydrochloride]
  ER degradation and ER signaling (PgR, GREB1, TFF1): caused ER degradation and inhibited ER signaling
